Experimental data taken from patent US5994320A, “Antisense oligonucleotides and methods for treating central nervous system tumors” (Regents of the University of Minnesota, priority 1997, dated 1999).

Assays:
[1] = system: DAOY medulloblastoma cell line; test: 3H-thymidine assay of DAOY cell proliferation; type: cell-based, human; settings: DAOY cells, 5 nanomoles/500 microliters; for 3H-thymidine incorporation, mean ± SEM: 2 days; for % Control (proliferation): 2 days (48 hours)
Experimental: (§1) Antisense oligonucleotides were incubated with glioblastoma (T98, U87, U373) and medulloblastoma (DAOY) cell lines when they were approximately 60% confluent. Antisense oligonucleotides were added at 5 nanomoles/500 microliters and incubated for 2 days in phosphate buffered saline. Growth of cells lines was measured at 2 days using a standard ^3 H-thymidine assay. Coligan et al., Current Protocols in Immunology, Vol. 2, pg.

U87 gliomas = test: Intraflank U87 tumors in nude mice, intratumoral injection; type: in vivo, athymic nude mice; settings: for Change in tumor size at day 21: 100 μM, 50 μl (5 nanomoles/injection) intratumorally every two days, days 13 to 21
Experimental: Solid U87 gliomas were established in the flanks of athymic nude mice aged 4-6 weeks. Each animal received 5×10^6 U87 cells in 200 μl of medium. The cells were injected subcutaneously into one flank through a 25-gauge needle attached to a tuberculin syringe.
Cells were initially grown in a monolayer at 37° C. in DMEM medium containing 10% fetal calf serum, 2 mM glutamine, 1000 IU/ml of penicillin, and 100 μg/ml of streptomycin. Cells were harvested from culture flasks using trypsin immediately before injection and were kept on ice until the time of injection. Before injection the number of viable cells were confirmed by trypan blue exclusion. Past experience has shown that approximately 90% of tumors will successfully grow in the flank after U87 cell inoculation.
Tumors were allowed to grow for 14 days. Tumor size was evaluated with Vernier calipers using the formula 1/2 length(width)^2 where the length was the longest dimension and the width was the diameter perpendicular to the length. AONcmyb(2-7) was then injected using a Hamilton syringe directly into the tumor at a concentration of 0, 1, 10, or 100 μM in 50 μl volumes on alternate days for 8 days (FIG. 1).
The effects of administering 100 μM concentrations of AONcmyb(2-7) and AONcmyb(182-188) with their corresponding nonsense oligonucleotides, NONcmyb(2-7) and NONcmyb(182-188) along with Hank's Balanced Salt Solution as controls was compared. From days 13 to 21 animals received 50 μl(5 nanomoles/injection) injections intratumorally of either antisense, nonsense, or HBSS every two days.

EGF receptor = EGF receptor expression by flow cytometry in T98 and U87 cells; type: cell-based, human; settings: 10 μM, 48 hours
Experimental: The effects of c-myb antisense on the expression of epidermal growth factor (EGF) receptors in T98 and U87 cells in vitro was examined using a flow cytometric approach to quantify fluorescently labeled receptors. T98 and U87 cell lines that were treated with 10 μM antisense oligonucleotides for 48 hours were harvested. About 10^5 10^6 (number of cells) were incubated with fluorescently labeled antibody to EGF receptor (available from Upstate Biotech, Inc.) for 24 hours. The cells were then analyzed using a Beckman FACS cell sorter.
Cells for receptor expression assays were harvested, washed twice in PBS and fixed in 70% ethanol of 2% paraformaldehyde. After washing, cells were incubated with appropriate concentrations of specific receptor antibodies for 2-12 hours. Antibody conjugated FITC was then added to the cell suspensions. Cells were washed well between steps and resuspended in Hanks balanced salt solution, 1% sodium azide, and 1% bovine serum albumin. FITC fluorescence was then assayed by flow cytometry counting 10,000 cells per sample. The amount of fluorescently labeled EGF receptor and PDGF receptor were determined by standard flow cytometry analysis.

[2] = Toxicity of intraventricular antisense administration (Whitesell et al.); type: in vivo, rats; settings: 0.1 nmole/hr versus toxic 3.0 nmole/hr
Experimental: In a study assessing the toxicity of intraventricular antisense administration (Whitesell et al., Proc. Natl. Acad. Sci., 90:4665-4669, 1993), it was determined that dosages of 1.5 nmoles/hr were well tolerated in rats while a dose of 3.0 nmole/hr was toxic. […] Therefore, it is believed that an increase in dose of the c-myb antisense can be administered that will improve survival without toxic side effects.

[3] = system: human U87 glioblastoma cells; test: Intracerebral infusion, survival of nude rats with intrastriatal U87 xenografts; type: in vivo; settings: 0.1 nmole/hour continuous infusion over 14 days; saline animals survived only 13 days
Experimental: The effects of infusing c-myb antisense to codons 2-7 on the survival of nude rats with intrastriatal xenografts of human U87 glioblastoma cells was examined. A dose of 0.1 nmole/hour was infused. This dose is equivalent to the delivery of 100 µM of c-myb antisense injected directly into intraflank U87 tumors in 50 Ul volumes on alternate days. Animals received continuous infusions of either c-myb antisense or saline by Alzet Osmotic Minipump (Alza, Palo Alto, Calif.) over a period of 14 days. The pump was implanted immediately above the site of the tumor.

[4] = system: U373 glioblastoma cell line; test: 3H-thymidine assay of U373 cell proliferation; type: cell-based, human; settings: U373 cells, 5 nanomoles/500 microliters; for 3H-thymidine incorporation, mean ± SEM: 2 days; for % Control (proliferation): 2 days (48 hours)
Experimental: as §1

[5] = system: U87 glioblastoma cell line; test: 3H-thymidine assay of U87 cell proliferation; type: cell-based, human; settings: U87 cells, 5 nanomoles/500 microliters; for 3H-thymidine incorporation, mean ± SEM: 2 days; for % Control (proliferation): 2 days (48 hours)
Experimental: as §1

[6] = system: T98 glioblastoma cell line; test: 3H-thymidine assay of T98 cell proliferation; type: cell-based, human; settings: T98 cells, 5 nanomoles/500 microliters; for 3H-thymidine incorporation, mean ± SEM: 2 days; for % Control (proliferation): 2 days (48 hours)
Experimental: as §1

## 5'-GTG CCG GGG TCT TCG GGC-3' (antisense GTGCCGGGGTCTTCGGGC; chemistry not given here) [AONcmyb(2-7), antisense to the initiator region of c-myb, codons 2-7]
[1]
  3H-thymidine incorporation, mean ± SEM: 604,061 ± 59,989 dpm
  % Control (proliferation): 53%
U87 gliomas; 100 μM versus 0, 1, 10 μM, 50 μl intratumoral on alternate days for 8 days
  Suppression of tumor growth, comparison of concentrations: most effective in suppressing tumor growth
U87 gliomas
  Change in tumor size at day 21: no significant change
EGF receptor
  EGF receptor binding, % of control levels: 13%-30%
[2]
  Factor by which the dose used is below the toxic level for antisense in the brain: 30 times
[3]
  Animals with increased survival times: 25%
[4]
  3H-thymidine incorporation, mean ± SEM: 402,504 ± 49,647 dpm
  % Control (proliferation): 52%
[5]
  3H-thymidine incorporation, mean ± SEM: 74,688 ± 10,145 dpm
  % Control (proliferation): 20%
[6]
  3H-thymidine incorporation, mean ± SEM: 67,318 ± 6,183 dpm
  % Control (proliferation): 53%

## 5'-TGTAGAATTCCAGTGGTTCTT-3' (antisense TGTAGAATTCCAGTGGTTCTT; chemistry not given here) [AONcmyb(182-188)]
[1]
  3H-thymidine incorporation, mean ± SEM: 517,725 ± 105,450 dpm
  % Control (proliferation): 45%
U87 gliomas
  Change in tumor size at day 21: no significant change
EGF receptor
  EGF receptor binding, % of control levels: 30%-35%
[4]
  3H-thymidine incorporation, mean ± SEM: 588,082 ± 25,836 dpm
  % Control (proliferation): 76%
[5]
  3H-thymidine incorporation, mean ± SEM: 92,968 ± 37,259 dpm
  % Control (proliferation): 25%
[6]
  3H-thymidine incorporation, mean ± SEM: 78,457 ± 3,224 dpm
  % Control (proliferation): 61%
